What was measured:
[1] = target: DNA gyrase (Escherichia coli); experiment: Inhibition of Escherichia coli Quinolone resistant gyrase Supercoiling activity
[2] = target: DNA gyrase (Escherichia coli); experiment: Inhibition effect on Escherichia coli Wild Type DNA gyrase Supercoiling activity

IC50 [1]: 71.5 µM
IC50 [2]: 8.8 µM
Compound: N[C@H]1CCCN(c2c(F)cc3c(=O)c(C(=O)O)cn(C4CC4)c3c2F)C1

From BindingDB's records for doi:10.1021/jm030272n (Procter & Gamble Pharmaceuticals, 2003)
